In publication PMC11945486, “TAS1R2/TAS1R3 Single-Nucleotide Polymorphisms Affect Sweet Taste Receptor Activation by Sweeteners: The SWEET Project” (Nutrients, 2025):
Read-outs that look alike come from different tables or passages of the source. No end group written: not given here.

T1: human TAS1R2-WT/TAS1R3-P780A (Homo sapiens, UniProt Q7RTX0+Q8TE23, P780A)
T1 construct: expressed in transfected cells; host or cells: HEK293T stably expressing Gα16gust44
T1 sequence (Q8TE23 20-839): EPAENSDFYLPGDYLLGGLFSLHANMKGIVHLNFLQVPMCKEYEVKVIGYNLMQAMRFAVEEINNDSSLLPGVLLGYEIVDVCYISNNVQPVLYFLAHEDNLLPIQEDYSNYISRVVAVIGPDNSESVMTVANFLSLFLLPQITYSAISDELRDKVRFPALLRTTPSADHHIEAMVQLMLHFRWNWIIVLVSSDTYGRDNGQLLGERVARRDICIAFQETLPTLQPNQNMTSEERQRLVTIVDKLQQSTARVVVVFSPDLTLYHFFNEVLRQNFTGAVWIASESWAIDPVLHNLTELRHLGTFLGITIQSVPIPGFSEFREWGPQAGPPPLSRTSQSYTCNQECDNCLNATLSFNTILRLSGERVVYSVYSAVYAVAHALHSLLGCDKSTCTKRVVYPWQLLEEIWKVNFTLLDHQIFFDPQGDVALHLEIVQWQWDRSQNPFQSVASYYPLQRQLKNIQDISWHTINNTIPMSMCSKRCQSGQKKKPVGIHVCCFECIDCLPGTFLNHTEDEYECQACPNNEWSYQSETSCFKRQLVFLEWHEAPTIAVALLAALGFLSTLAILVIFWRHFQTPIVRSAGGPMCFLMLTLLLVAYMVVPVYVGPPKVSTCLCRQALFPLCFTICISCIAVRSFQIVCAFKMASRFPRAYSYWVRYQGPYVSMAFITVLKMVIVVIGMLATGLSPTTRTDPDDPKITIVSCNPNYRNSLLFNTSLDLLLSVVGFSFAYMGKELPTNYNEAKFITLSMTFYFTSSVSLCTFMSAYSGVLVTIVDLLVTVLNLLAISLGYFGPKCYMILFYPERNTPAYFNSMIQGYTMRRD
T1 sequence (Q7RTX0 21-852 P780A): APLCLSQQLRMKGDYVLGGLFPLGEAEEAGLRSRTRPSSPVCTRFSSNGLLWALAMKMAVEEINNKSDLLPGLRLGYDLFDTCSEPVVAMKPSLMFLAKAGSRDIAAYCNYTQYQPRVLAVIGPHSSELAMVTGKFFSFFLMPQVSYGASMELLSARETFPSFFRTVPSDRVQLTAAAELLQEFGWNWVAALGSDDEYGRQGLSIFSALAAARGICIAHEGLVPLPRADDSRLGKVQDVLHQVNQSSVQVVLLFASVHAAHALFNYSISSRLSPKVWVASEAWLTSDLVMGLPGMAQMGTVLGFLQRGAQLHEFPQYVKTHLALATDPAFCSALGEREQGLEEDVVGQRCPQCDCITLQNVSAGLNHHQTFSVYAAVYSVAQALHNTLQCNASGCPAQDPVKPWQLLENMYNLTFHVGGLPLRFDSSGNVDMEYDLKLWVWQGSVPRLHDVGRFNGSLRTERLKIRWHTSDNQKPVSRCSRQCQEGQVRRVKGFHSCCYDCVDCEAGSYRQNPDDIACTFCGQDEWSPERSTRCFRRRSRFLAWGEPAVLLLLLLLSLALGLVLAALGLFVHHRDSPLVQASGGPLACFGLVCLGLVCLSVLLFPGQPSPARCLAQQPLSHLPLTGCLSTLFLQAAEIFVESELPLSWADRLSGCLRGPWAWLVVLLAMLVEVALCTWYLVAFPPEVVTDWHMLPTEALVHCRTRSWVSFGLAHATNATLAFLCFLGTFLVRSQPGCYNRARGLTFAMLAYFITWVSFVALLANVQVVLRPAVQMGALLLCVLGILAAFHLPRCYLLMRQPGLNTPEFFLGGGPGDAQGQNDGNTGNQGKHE


Molecular target: T1, human TAS1R2-WT/TAS1R3-P780A
Experiment: Calcium mobilisation assay, TAS1R2-WT with TAS1R3 variant P780A
Type: cell-based
Details: for Max ΔF/F0: maximal signal amplitude
Source text: The coding sequences for TAS1R2 and TAS1R3 were commercially synthesised, and the human codon was optimised for expression in human cells. The coding sequences of human TAS1R2 and TAS1R3 were subcloned and inserted into the mammalian expression vectors pcDNA6/myc-HisA and pcDNA4/myc-HisA (Invitrogen; Thermo Fisher Scientific; Illkirch, France) between the EcoRI and NotI restriction sites, generating the plasmids pcDNA6-TAS1R2 and pcDNA4-TAS1R3, respectively. To increase protein expression in mammalian cells, an upstream start codon was used, which was a sequence called MAX, corresponding to the QBI SP163 element also described in pcDNA4-HisMax (Invitrogen; Thermo Fisher Scientific; Illkirch, France). To measure the expression level of the receptor by immunohistochemistry, we used the FLAG sequence ([…]) in the C-terminal position, which encodes the FLAG tag epitope. SNP variants of TAS1R2 and TAS1R3 were constructed based on […], respectively, using site-directed mutagenesis (Genewiz; Leipzig, Germany).
The HEK293T cells were kindly provided by Jay P. Slack (Givaudan Flavors Corporation; Cincinnati, OH, USA). HEK293T cells stably transfected with Gα16gust44 [43, 67] were seeded in poly-D-lysine-coated clear-bottom black 96-well plates (0.35 × 10^5 cells/well) in high-glucose DMEM supplemented with 2 mM GlutaMAX, 10% dialysed foetal bovine serum with penicillin/streptomycin and G418 (400 μg/mL) at 37 °C and 6.3% CO2 in a humidified atmosphere as previously reported. […] As a negative control, HEK293T cells were mock-transfected with the empty expression vector. After a further 24 h of incubation, the HEK293T cells were washed with C1 buffer (130 mM NaCl, 5 mM KCl, 10 mM HEPES pH 7.4 and 2 mM CaCl2). The 96-well plates containing the cells were then stimulated with sweet-tasting compounds. […] Different concentration ranges were tested depending on the sweet compound injected. The Ca^2+ changes were expressed as fractional changes in fluorescent light intensity: ΔF/F = (F − F0)/F0, where F was the fluorescent light intensity at each point, and F0 was the value of emitted fluorescent light prior to stimulus application. To calculate dose–response relationships, the changes in fluorescence upon stimulus application were averaged, mock-subtracted and baseline-corrected. The dose–response data obtained were adjusted using a 4-parameter logistic equation. The half-maximal effective concentrations (EC50 values) and maximal signal amplitudes were calculated using SigmaPlot software (version 15.0) (Systat Software; San Jose, CA, USA).
For in vitro calcium mobilisation assay performed on hTAS1R2-SNPs, hTAS1R3-SNPs and mTAS1R3-I60T, 6 to 7 concentrations were tested for each sweet compound, plus buffer alone. All concentration–receptor combinations were measured in duplicate, and each experiment was repeated at least 4 times (8 wells/concentration). Results were expressed for each concentration as ΔF/F mean ± SEM and represented as dose–response curves.

Row | R1 = Variant EC50/WT EC50 | Max ΔF/F0 | EC50 (read-out: EC50) [µM] | EC50 (brazzein) [µg/mL] | Molecule
1 | 0.7 | 0.30 ± 0.01 | 421 ± 31 |  | CC1=CC(=O)NS(=O)(=O)O1 [Acesulfame K, acesulfame K]
2 | 0.9 | 1.50 ± 0.01 | 46.4 ± 12.9 |  | COc1ccc(CCC(=O)c2c(O)cc(O[C@@H]3O[C@H](CO)[C@@H](O)[C@H](O)[C@H]3O[C@@H]3O[C@@H](C)[C@H](O)[C@@H](O)[C@H]3O)cc2O)cc1O [NHDC, neohesperidin dihydrochalcone]
3 | 0.8 | 0.63 ± 0.02 | 1.03 ± 0.08 |  | COC(=O)[C@H](Cc1ccccc1)NC(=O)[C@H](CC(=O)O)NCCC(C)(C)C [Neotame]
4 | 0.9 | 1.44 ± 0.20 | 12.7 ± 5 |  | C=C(C)[C@@H]1CC=C(/C=N/O)CC1 [Perillartine, perillartine]
5 | 0.6 | 1.21 ± 0.05 | 23 ± 2.6 |  | C=C1C[C@@]23CC[C@H]4[C@@](C)(CCC[C@@]4(C)C(=O)O[C@@H]4O[C@H](CO)[C@@H](O)[C@H](O[C@@H]5O[C@H](CO)[C@@H](O)[C@H](O)[C@H]5O)[C@H]4O[C@@H]4O[C@H](CO)[C@@H](O)[C@H](O)[C@H]4O)[C@@H]2CC[C@]1(O[C@@H]1O[C@H](CO)[C@@H](O)[C@H](O[C@@H]2O[C@H](CO)[C@@H](O)[C@H](O)[C@H]2O)[C@H]1O[C@@H]1O[C@H](CO)[C@@H](O)[C@H](O)[C@H]1O)C3 [Rebaudioside M, rebaudioside M]
6 | 1.4 | 0.76 ± 0.03 | 149 ± 12 |  | OC[C@H]1O[C@H](O[C@]2(CCl)O[C@H](CCl)[C@@H](O)[C@@H]2O)[C@H](O)[C@@H](O)[C@H]1Cl [Sucralose]
7 | 0.7 | 1.06 ± 0.06 |  | 80.7 ± 14.8 | brazzein (QDKCKKVYENYPVSKCQLANQCNYDCKLDKHARSGECFYDEKRNLQCICDYCEY; ends and bridges not checked; cysteine pairing not given here; UniProt P56552 1-54, looked up) [sweet-tasting protein obtained by recombinant production using the yeast Pichia pastoris]
8 | 0.8 | 0.86 ± 0.06 |  |  | thaumatin
9 |  |  | 7.8 ± 1.3 |  | thaumatin (protein, Eight disulfides, sweet-tasting plant protein, E957) ATFEIVNRCSYTVWAAASKGDAALDAGGRQLNSGESWTINVEPGTKGGKIWARTDCYFDDSGSGICKTGDCGGLLRCKRFGRPPTTLAEFSLNQYGKDYIDISNIKGFNVPMDFSPTTRGCRGVRCAADIVGQCPAKLKAPGGGCNDACTVFQTSEYCCTTGKCGPTEYSRFFKRLCPDAFSYVLDKPTTVTCPGSSNYRVTFCPTA

Row | Molecule | R1 = Variant EC50/WT EC50 | Max ΔF/F0 | EC50 (read-out: EC50) [µM] | EC50 (brazzein) [µg/mL]
10 | O=S(=O)(O)NC1CCCCC1 [Cyclamate, cyclamate] |  |  | 1170 ± 62 | 
11 | C[C@H](CC[C@@H](O[C@@H]1O[C@H](CO[C@@H]2O[C@H](CO)[C@@H](O)[C@H](O)[C@H]2O)[C@@H](O)[C@H](O)[C@H]1O[C@@H]1O[C@H](CO)[C@@H](O)[C@H](O)[C@H]1O)C(C)(C)O)[C@H]1CC[C@@]2(C)[C@@H]3CC=C4[C@@H](CC[C@H](O[C@@H]5O[C@H](CO[C@@H]6O[C@H](CO)[C@@H](O)[C@H](O)[C@H]6O)[C@@H](O)[C@H](O)[C@H]5O)C4(C)C)[C@]3(C)[C@H](O)C[C@]12C [Mogroside V, mogroside V] | 0.7 | 1.13 ± 0.04 | 22.5 ± 2.2 | 
